Assay results from the supplement of paper PMC11208160.

Test: recombinant UMI read abundance after kanamycin selection (control-corrected) (log10(CPM+1)); higher = more efficient recombination; extreme values may be limits of the assay; sequences stand for … in AGTGCAGAGAAAATCGGCCAGTTTTCTCTGCCTGCAGTCCGCATGCCGTGGGACCCCTTGGGTTCTAACCTGTTGCCTAGATTTATGCAGCGGACTGCCTTTCTCCCAAAGTGATAAACCGG…AGGTTGGTTTCACT; site = the 11-nt donor
Summary of the method: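 Values, expressed as log10(CPM+1), derive from recombinant UMI counts converted to CPM, averaged across replicates and scaled by control-derived factors. Plating was with IPTG (0.07 mM) plus kanamycin or unselected, two replicates each. The screen pooled donor and donor-binding-loop pairs for the IS621 bridge recombinase in Escherichia coli.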
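Note: IS621 bridge recombinase in Escherichia coli cells against a fixed T5 target plasmid.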

In order of falling “recombinant UMI read abundance (log10)” value:
1. AGGACTGCATGGACCGGTTTTCCCGGTAATCCGTATTTGAC (site AGGACTGCTGT)  2.92
2. AGGAAGACATGGACCGGTTTTCCCGGTAATCCGTATTTGCG (site AGGAAGACTCG)  2.32
3. AGGACTACATGGACCGGTTTTCCCGGTAATCCGTATTTGAC (site AGGACTACTGT)  2.29
4. AGGACTACATGGACCGGTTTTCCCGGTAATCCGTATTTGCA (site AGGACTACTTG)  2.22
5. AGGAATACATGGACCGGTTTTCCCGGTAATCCGTATTTGCT (site AGGAATACTAG)  2.18
6. AGGACTACATGGACCGGTTTTCCCGGTAATCCGTATTTGAC (site AGAACTACTGT)  2.18
7. AGGACTGCATGGACCGGTTTTCCCGGTAATCCGTATTTGAC (site AGGACTACTGT)  2.15
8. AGGAAATCATGGACCGGTTTTCCCGGTAATCCGTATTTGCA (site AGGAAATCTTG)  1.9
9. AGCTATGCATGGACCGGTTTTCCCGGTAATCCGTATTTGAT (site AGCTATGCTAT)  1.79
10. AGGAAATCATGGACCGGTTTTCCCGGTAATCCGTATTTGGT (site AGGAAATCTAC)  1.73
11. AGGAAGACATGGACCGGTTTTCCCGGTAATCCGTATTTGCG (site AGGAAGACTTG)  1.73
12. AGGACGGCATGGACCGGTTTTCCCGGTAATCCGTATTTGAA (site AGGACGGCTTT)  1.73
13. AGCTTGTCATGGACCGGTTTTCCCGGTAATCCGTATTTGAG (site AGCTTGTCTCT)  1.62
14. AGGACATCATGGACCGGTTTTCCCGGTAATCCGTATTTGCT (site AGGACATCTAG)  1.48
15. AGCTCTGCATGGACCGGTTTTCCCGGTAATCCGTATTTGGT (site AGCTCTGCTAC)  1.36
16. AGGACTACATGGACCGGTTTTCCCGGTAATCCGTATTTGAC (site AGGAATACTGT)  1.29
17. AGCGCGACATGGACCGGTTTTCCCGGTAATCCGTATTTGAG (site AGCGCGACTCT)  1.27
18. AGGACTACATGGACCGGTTTTCCCGGTAATCCGTATTTGAC (site AGGTCTACTGT)  1.2
19. AGGACATCATGGACCGGTTTTCCCGGTAATCCGTATTTGCT (site TGGACATCTAG)  1.15
20. AGGACTACATGGACCGGTTTTCCCGGTAATCCGTATTTGAC (site ATGACTACTGT)  1.13
21. AGGACATCATGGACCGGTTTTCCCGGTAATCCGTATTTGCT (site CGGACATCTAG)  1.01
22. AGGACTACATGGACCGGTTTTCCCGGTAATCCGTATTTGAC (site AGGCCTACTGT)  0.988
23. AGGACTACATGGACCGGTTTTCCCGGTAATCCGTATTTGAC (site AGGACCACTGT)  0.969
24. AGGACTACATGGACCGGTTTTCCCGGTAATCCGTATTTGAC (site ACGACTACTGT)  0.945
25. AGGACTACATGGACCGGTTTTCCCGGTAATCCGTATTTGAC (site AGTACTACTGT)  0.941
26. AGCTGAGCATGGACCGGTTTTCCCGGTAATCCGTATTTGCC (site AGCTGAGCTGG)  0.908
27. AGGACTACATGGACCGGTTTTCCCGGTAATCCGTATTTGAC (site TGGACTACTGT)  0.901
28. AGGACTACATGGACCGGTTTTCCCGGTAATCCGTATTTGAC (site AAGACTACTGT)  0.848
29. AGGACTACATGGACCGGTTTTCCCGGTAATCCGTATTTGAC (site CGGACTACTGT)  0.831
30. AGGACTACATGGACCGGTTTTCCCGGTAATCCGTATTTGAC (site AGGACAACTGT)  0.797
31. AGGACTCCATGGACCGGTTTTCCCGGTAATCCGTATTTGAC (site AGGACTCCTGT)  0.719
32. AGGACTACATGGACCGGTTTTCCCGGTAATCCGTATTTGAC (site AGGACTACTGC)  0.68
33. AGGAATCCATGGACCGGTTTTCCCGGTAATCCGTATTTGTA (site AGGAATCCTTA)  0.615
34. AGGACTGCATGGACCGGTTTTCCCGGTAATCCGTATTTGAC (site AGGACTCCTGT)  0.533
35. AGGAGATCATGGACCGGTTTTCCCGGTAATCCGTATTTGGG (site AGGAGATCTCC)  0.505
36. AGGACTACATGGACCGGTTTTCCCGGTAATCCGTATTTGAC (site AGGATTACTGT)  0.471
37. AGGACTACATGGACCGGTTTTCCCGGTAATCCGTATTTGAC (site AGGACTGCTGT)  0.359
38. AGGACCCCATGGACCGGTTTTCCCGGTAATCCGTATTTGGT (site AGGACCCCTAC)  0.297
39. AGGACACCATGGACCGGTTTTCCCGGTAATCCGTATTTGTA (site AGGACACCTTA)  0.189
40. AGGAAGACATGGACCGGTTTTCCCGGTAATCCGTATTTGCG (site AGGAAGACTAG)  0.0723
41. AGGACTACATGGACCGGTTTTCCCGGTAATCCGTATTTGAC (site AGGACTACTTT)  0.0694
42. AGGACATCATGGACCGGTTTTCCCGGTAATCCGTATTTGCT (site GGGACATCTAG)  0.0498
43. AGCTCGGCATGGACCGGTTTTCCCGGTAATCCGTATTTGGG (site AGCTCCGCTCC)  0.0225
44. AGCTCGGCATGGACCGGTTTTCCCGGTAATCCGTATTTGGG (site AGCTCAGCTCC)  0.0161
45. AGCTACGCATGGACCGGTTTTCCCGGTAATCCGTATTTGGG (site AGCTACGCTCC)  0.0157
46. AGGACTACATGGACCGGTTTTCCCGGTAATCCGTATTTGAC (site AGGACTTCTGT)  0.0138
47. AGCGCAGCATGGACCGGTTTTCCCGGTAATCCGTATTTGGG (site AGCTCAGCTCC)  0.0119
48. AGCGCAGCATGGACCGGTTTTCCCGGTAATCCGTATTTGGG (site AGCCCAGCTCC)  0.0111
49. AGGACTACATGGACCGGTTTTCCCGGTAATCCGTATTTGAC (site AGGACTACTCT)  0.0111
50. AGCGCAGCATGGACCGGTTTTCCCGGTAATCCGTATTTGGG (site AGCGCAGCTCC)  0.0103
51. AGGACTACATGGACCGGTTTTCCCGGTAATCCGTATTTGAC (site AGCACTACTGT)  0.0103
52. AGGAATCCATGGACCGGTTTTCCCGGTAATCCGTATTTGTA (site CGGAATCCTAA)  0.00925
53. AGGACTACATGGACCGGTTTTCCCGGTAATCCGTATTTGAC (site AGGACGACTGT)  0.00571
54. AGCTAACCATGGACCGGTTTTCCCGGTAATCCGTATTTGAA (site AGCTAACCTTT)  0.00558
55. AGCTAACCATGGACCGGTTTTCCCGGTAATCCGTATTTGTG (site AGCTAACCTCA)  0.00444
56. AGGACTACATGGACCGGTTTTCCCGGTAATCCGTATTTGAC (site AGGACTACTAT)  0.00291
57. AGCGGTCCATGGACCGGTTTTCCCGGTAATCCGTATTTGAC (site AGCGGTCCTGT)  0
58. AGCTCGGCATGGACCGGTTTTCCCGGTAATCCGTATTTGGG (site AGCTCGGCTCC)  0
59. AGCTCGGCATGGACCGGTTTTCCCGGTAATCCGTATTTGGG (site AGCTCTGCTCC)  0
60. AGCTCTACATGGACCGGTTTTCCCGGTAATCCGTATTTGAA (site AGCTCTACTTT)  0
61. AGCTTGCCATGGACCGGTTTTCCCGGTAATCCGTATTTGGC (site AGCTTGCCTGC)  0
62. AGGAAATCATGGACCGGTTTTCCCGGTAATCCGTATTTGCA (site AGGAAGACTTG)  0
63. AGGAAGACATGGACCGGTTTTCCCGGTAATCCGTATTTGCG (site AGGAAGACTGG)  0
64. AGGAATACATGGACCGGTTTTCCCGGTAATCCGTATTTGCT (site AGGAAGACTTG)  0
65. AGGACTACATGGACCGGTTTTCCCGGTAATCCGTATTTGAC (site AGGACTACTGA)  0
66. AGGACTACATGGACCGGTTTTCCCGGTAATCCGTATTTGAC (site AGGACTACTGG)  0
67. AGGACTACATGGACCGGTTTTCCCGGTAATCCGTATTTGAC (site AGGACTCCTGT)  0
68. AGGACTACATGGACCGGTTTTCCCGGTAATCCGTATTTGAC (site AGGAGTACTGT)  0
69. AGGACTACATGGACCGGTTTTCCCGGTAATCCGTATTTGAC (site AGGGCTACTGT)  0
70. AGGACTACATGGACCGGTTTTCCCGGTAATCCGTATTTGAC (site GGGACTACTGT)  0
71. AGGACTACATGGACCGGTTTTCCCGGTAATCCGTATTTGCA (site AGGAAGACTTG)  0
72. AGGACTCCATGGACCGGTTTTCCCGGTAATCCGTATTTGAC (site AGGACTACTGT)  0
73. AGGACTCCATGGACCGGTTTTCCCGGTAATCCGTATTTGAC (site AGGACTGCTGT)  0
74. AGGACTCCATGGACCGGTTTTCCCGGTAATCCGTATTTGAC (site AGGACTTCTGT)  0
75. AGGACTGCATGGACCGGTTTTCCCGGTAATCCGTATTTGAC (site AGGACTTCTGT)  0
